Measured values from publication PMC3633088 (Chemistry & biology, 2013).
Blank lines part the entries; values can stand above or below the molecule they belong to.

Legend:
[1] = biological target: T1, hASNase3, cleaved (active) form, alpha and beta chains (Homo sapiens, UniProt Q7L266); test: asparaginase activity assay; format: biochemical; conditions: up to 50 mM; cleaved enzyme
T1 sequence (Q7L266 1-167): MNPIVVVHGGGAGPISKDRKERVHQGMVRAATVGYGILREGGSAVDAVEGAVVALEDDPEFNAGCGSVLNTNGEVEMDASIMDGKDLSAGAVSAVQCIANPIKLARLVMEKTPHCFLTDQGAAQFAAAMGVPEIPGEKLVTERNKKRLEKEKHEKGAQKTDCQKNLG
T1 sequence (Q7L266 168-308): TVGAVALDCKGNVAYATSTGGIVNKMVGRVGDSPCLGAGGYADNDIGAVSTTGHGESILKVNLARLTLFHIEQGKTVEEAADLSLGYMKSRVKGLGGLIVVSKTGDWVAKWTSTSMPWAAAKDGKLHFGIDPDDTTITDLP

[2] = biological target: T1, hASNase3, cleaved (active) form, alpha and beta chains; test: asparaginase activity assay; format: biochemical; conditions: turnover by cleaved enzyme only; data not shown
[3] = biological target: T1, hASNase3, cleaved (active) form, alpha and beta chains; test: X-ray crystal structure, […] Å; format: binding; conditions: crystal soaked in 3 M glycine, pH 4.9, <1 minute; substrate site (Arg196, Asp199)
[4] = biological target: T2, hASNase3, uncleaved form (human asparaginase 3; hASRGL1/ALP; CRASH) (Homo sapiens, UniProt Q7L266); test: autocleavage, SDS-PAGE band quantification; format: biochemical; conditions: accelerates autoproteolysis; 5 mM glycine, pH 7.5, 25 °C, 42 hours
T2 sequence (Q7L266 1-308): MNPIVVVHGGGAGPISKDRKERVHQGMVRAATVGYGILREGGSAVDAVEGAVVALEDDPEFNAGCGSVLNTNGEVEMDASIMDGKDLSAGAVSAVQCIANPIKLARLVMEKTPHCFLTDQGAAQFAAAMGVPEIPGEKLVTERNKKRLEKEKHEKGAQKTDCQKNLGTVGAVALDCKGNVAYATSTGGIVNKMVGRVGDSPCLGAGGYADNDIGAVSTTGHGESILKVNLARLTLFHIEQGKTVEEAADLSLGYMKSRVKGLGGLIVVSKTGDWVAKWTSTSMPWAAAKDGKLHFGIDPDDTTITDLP

[5] = biological target: T1, hASNase3, cleaved (active) form, alpha and beta chains; test: asparaginase activity assay; format: biochemical; conditions: 10 or 50 mM glycine; cleaved enzyme
crystal structure = biological target: the molecule itself; test: crystal structure
hASNase3 α-chain = biological target: T3, hASNase3 α-chain (human, UniProt Q7L266 1-167); test: crystal structure
T3 sequence (looked up): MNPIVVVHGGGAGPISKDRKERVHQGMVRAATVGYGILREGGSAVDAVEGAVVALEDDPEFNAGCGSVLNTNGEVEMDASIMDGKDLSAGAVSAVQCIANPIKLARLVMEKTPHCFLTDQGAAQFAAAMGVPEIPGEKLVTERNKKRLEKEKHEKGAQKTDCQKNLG

Molecule: N[C@@H](CC(=O)O)C(=O)O [L-aspartate]
inhibition, concentration-dependent [1]: glycolate, glyoxylate, oxalate, L-aspartate, and serine showed a concentration-dependent effect

Molecule: NC(=O)C[C@H](N)C(=O)O [asparagine]
asparaginase activity assay [2]: The measured asparaginase activity of hASNase3 was proportional to the amount of cleaved enzyme

% cleavage at 5 mM [4]: 40% | % reduction of asparaginase activity at 10 or 50 mM [5]: ~ 50%
Molecule: NCC(=O)O [glycine]
X-ray crystal structure, 1.91 Å [3]: In this post-cleavage state of hASNase3, glycine bound at the active site

Molecule: O=C(O)CO [glycolate]
inhibition, concentration-dependent [1]: glycolate, glyoxylate, oxalate, L-aspartate, and serine showed a concentration-dependent effect

Molecule: O=CC(=O)O [glyoxylate]
inhibition, concentration-dependent [1]: glycolate, glyoxylate, oxalate, L-aspartate, and serine showed a concentration-dependent effect

Molecule: O=C(O)C(=O)O [oxalate]
inhibition, concentration-dependent [1]: glycolate, glyoxylate, oxalate, L-aspartate, and serine showed a concentration-dependent effect

Molecule: N[C@@H](CO)C(=O)O [serine]
inhibition, concentration-dependent [1]: glycolate, glyoxylate, oxalate, L-aspartate, and serine showed a concentration-dependent effect

B1: Human asparaginase 3 (hASNase3), cleaved form (α- and β-chains) (complex)
chain 1: MNPIVVVHGGGAGPISKDRKERVHQGMVRAATVGYGILREGGSAVDAVEGAVVALEDDPEFNAGCGSVLNTNGEVEMDASIMDGKDLSAGAVSAVQCIANPIKLARLVMEKTPHCFLTDQGAAQFAAAMGVPEIPGEKLVTERNKKRLEKEKHEKGAQKTDCQKNLG
chain 2: TVGAVALDCKGNVAYATSTGGIVNKMVGRVGDSPCLGAGGYADNDIGAVSTTGHGESILKVNLARLTLFHIEQGKTVEEAADLSLGYMKSRVKGLGGLIVVSKTGDWVAKWTSTSMPWAAAKDGKLHFGIDPDDTTITDLP
binding result (crystal structure): binds

binding result (hASNase3 α-chain): binds
B2: hASNase3 β-chain (domain or fragment, human, UniProt Q7L266 168-308, looked up)
chain: TVGAVALDCKGNVAYATSTGGIVNKMVGRVGDSPCLGAGGYADNDIGAVSTTGHGESILKVNLARLTLFHIEQGKTVEEAADLSLGYMKSRVKGLGGLIVVSKTGDWVAKWTSTSMPWAAAKDGKLHFGIDPDDTTITDLP
